In paper PMC9570211, “Analysis of 1-Aroyl-3-[3-chloro-2-methylphenyl] Thiourea Hybrids as Potent Urease Inhibitors: Synthesis, Biochemical Evaluation and Computational Approach” (International Journal of Molecular Sciences, 2022):
Read-outs that look alike come from different tables or passages of the source.

Legend:
jack bean urease (JBU) [1] = biological target: T1, jack bean urease (JBU) (Canavalia ensiformis, UniProt P07374); assay: biochemical
Method: Hydrophobic and hydrophilic groups were substituted on a phenyl ring in the novel analogues 4a–j that were synthesized in order to check urease inhibition activity.
The function of nitro, chloro, methyl and ethyl substitution in urease inhibitory activity was evaluated. Thiourea, a well-known urease inhibitor, served as the reference compound.
The methodology used in this research for in vitro urease inhibitory activity is the same as reported in our earlier paper.

[2] = DPPH free radical scavenging assay; conditions: in comparison of standard Vitamin C; up to 100 µg/mL
Method: All of the produced 1-aroyl-3-[3-chloro-2-methylphenyl]thiourea compounds were assessed for the ability of DPPH free radical scavenging activity as depicted in Figure 2.
The assay performed in our studies had the same methodology as reported in our previous research articles.

jack bean urease (JBU) [3] = biological target: T1, jack bean urease (JBU); assay: Kinetic analysis of urease inhibition (Lineweaver–Burk); format: biochemical
Source text: Kinetic investigations provided additional evidence for the inhibitory function, in which the potential of the potent derivative 4i to inhibit the substrate at different concentrations in such a way that enzyme concentration remained constant. The kinetic tests of the enzyme gave a series of straight lines by the Lineweaver–Burk plot of 1/V versus 1/[S] in the presence of varying compound concentrations (Figure 3A).
Kinetics performed here as stated previously in our research articles was used for urease activity determination.
Figure 3 Compound 4i inhibiting urease in a Lineweaver–Burk plot (A) Concentrations of 4i were 0.00, 0.001, 0.002 and 0.004 µM (Blue, green, red and black colored lines). […] The lines were constructed using least squares linear regression mean ± SEM.

T1 sequence (P07374 whole entry, looked up): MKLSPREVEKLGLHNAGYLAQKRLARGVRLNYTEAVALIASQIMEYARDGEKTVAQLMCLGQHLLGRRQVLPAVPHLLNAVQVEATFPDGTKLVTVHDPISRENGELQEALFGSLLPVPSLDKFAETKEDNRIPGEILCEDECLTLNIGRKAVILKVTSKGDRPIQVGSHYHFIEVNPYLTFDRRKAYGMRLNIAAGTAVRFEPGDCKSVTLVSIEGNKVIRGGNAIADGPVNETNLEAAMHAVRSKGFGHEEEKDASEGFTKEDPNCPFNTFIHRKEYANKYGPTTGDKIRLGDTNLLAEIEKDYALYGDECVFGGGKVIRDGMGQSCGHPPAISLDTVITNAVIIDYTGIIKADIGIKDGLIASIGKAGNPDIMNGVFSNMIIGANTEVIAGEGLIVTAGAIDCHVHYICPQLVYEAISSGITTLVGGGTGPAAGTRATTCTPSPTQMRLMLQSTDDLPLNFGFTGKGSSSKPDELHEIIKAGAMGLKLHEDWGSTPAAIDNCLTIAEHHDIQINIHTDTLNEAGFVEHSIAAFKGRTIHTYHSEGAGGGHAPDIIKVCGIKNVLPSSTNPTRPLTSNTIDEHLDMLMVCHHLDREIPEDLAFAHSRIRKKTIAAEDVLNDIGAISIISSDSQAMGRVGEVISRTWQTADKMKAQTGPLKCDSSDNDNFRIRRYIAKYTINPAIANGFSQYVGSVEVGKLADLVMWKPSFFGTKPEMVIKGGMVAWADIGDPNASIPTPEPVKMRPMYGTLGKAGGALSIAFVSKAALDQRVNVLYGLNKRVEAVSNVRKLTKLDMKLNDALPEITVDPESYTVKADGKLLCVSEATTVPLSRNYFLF

## Cc1c(Cl)cccc1NC(=S)NC(=O)c1cc([N+](=O)[O-])cc([N+](=O)[O-])c1 [Compound 4g]
Jack bean urease (JBU) [1]
  IC50: 33.5 ± 99.4 nM
[2]
  DPPH free radical scavenging activity: good activity

## NC(N)=S [Thiourea]
Jack bean urease (JBU) [1]; jack bean urease, mean ± SEM, read-out: Urease Activity IC50 ± SEM
  IC50: 4750 ± 54.5 nM

## COc1ccc(C(=O)NC(=S)Nc2cccc(Cl)c2C)cc1 [Compound 4b]
Jack bean urease (JBU) [1]
  IC50: 7.9 ± 4.8 nM

## Cc1ccc(C(=O)NC(=S)Nc2cccc(Cl)c2C)cc1 [Compound 4d]
Jack bean urease (JBU) [1]
  IC50: 53.2 ± 99.5 nM
[2]
  DPPH free radical scavenging activity: good activity

## Cc1c(Cl)cccc1NC(=S)NC(=O)c1ccccc1 [Compound 4a, N-[[3-chloro-2-methylphenyl]carbamothioyl]benzamide]
Jack bean urease (JBU) [1]
  IC50: 44.9 ± 85.4 nM

## Cc1c(Cl)cccc1NC(=S)NC(=O)c1cccc([N+](=O)[O-])c1 [Compound 4f]
Jack bean urease (JBU) [1]
  IC50: 13.6 nM
[2]
  DPPH free radical scavenging activity: good activity

## Cc1c(Cl)cccc1NC(=S)NC(=O)c1ccccc1Cl [Compound 4i]
Jack bean urease (JBU) [1]
  IC50: 1.9 ± 1.1 nM
Jack bean urease (JBU) [3]
  Ki: 0.3 nM
Jack bean urease (JBU) [3]; Lineweaver–Burk plot
  Inhibition Type: Non-Competitive
Jack bean urease (JBU) [3]; concentration of 4i 0.001 (µM per Figure 3)
  Vmax: 0.000387 ΔA/Min
Jack bean urease (JBU) [3]; concentration of 4i 0.002 (µM per Figure 3)
  Vmax: 0.000131 ΔA/Min
Jack bean urease (JBU) [3]; concentration of 4i 0.004 (µM per Figure 3)
  Vmax: 8.495 × 10^−5 ΔA/Min
[2]
  DPPH free radical scavenging activity: good activity

## Cc1c(Cl)cccc1NC(=S)NC(=O)c1ccc(Cl)cc1 [Compound 4h]
Jack bean urease (JBU) [1]
  IC50: 22.9 nM
[2]
  DPPH free radical scavenging activity: good activity

## Cc1c(Cl)cccc1NC(=S)NC(=O)c1ccc([N+](=O)[O-])cc1 [Compound 4e]
[2]
  DPPH free radical scavenging activity: good activity
